Test results: US20150125889A1, “IN VITRO DETECTION OF MICROORGANISMS WITH AZOREDUCTASE ACTIVITY” (BIOMÉRIEUX, priority 2012, published 2015)

Columns and labels:
Assay in all cases: Reduction of azo substrates over 24 hours at 35° C., microtitration plate (Example 1)
Type in all cases: cell-based
Enterococcus faecalis = tested on: Enterococcus faecalis; design: key to RED (substrate reduced or not): RED indicates whether the substrate is reduced (Y) or not (N); RED indicates whether the substrate is reduced (Y) or not (N); key to Decol (substrate decolourized, decrease in absorbance) / Fluo (fluorescence multiplied by 2 relative to substrate-free control) / Co (growth, absorbance at 660 nm): The symbol “+” means good growth/decolourization/significant increase in fluorescence; The symbol “+/−” means difficult growth; The symbol “−” means that there is no growth/decolourization/significant increase in fluorescence; settings: E. faecalis, substrate 35 mg/l
Protocol: (§1) Reduction of the “azo” function of the substrates listed in Table I by the species listed in Table II, each species being represented by a strain, is tested in a microtitration plate.
(§2) The reaction medium consists of: • Trypcase soya broth • Substrate 35 mg/l • 0.5 MacFarland inoculum
(§3) The reduction of the substrate and the growth of the microorganisms are monitored using an Infinite® M200 Tecan microplate reader at 35° C. over 24 hours.
(§4) The growth is monitored by the absorbance at 660 nm and the reduction of the substrates by absorbance and fluorescence at the specific wavelengths indicated in Table III.
(§5) The substrate is considered as reduced by the microorganisms when the substrate is decolourized (monitored by the decrease in absorbance) (Decol) and/or when the fluorescence of the substrate is multiplied by 2 relative to the base fluorescence of a substrate-free control (Fluo). The growth is indicated by Co. The symbol “+” means good growth/decolourization/significant increase in fluorescence. The symbol “+/−” means difficult growth. The symbol “−” means that there is no growth/decolourization/significant increase in fluorescence. RED indicates whether the substrate is reduced (Y) or not (N).

Acinetobacter baumanii = tested on: Acinetobacter baumanii; design: key to RED (substrate reduced or not): RED indicates whether the substrate is reduced (Y) or not (N); RED indicates whether the substrate is reduced (Y) or not (N); key to Decol (substrate decolourized, decrease in absorbance) / Fluo (fluorescence multiplied by 2 relative to substrate-free control) / Co (growth, absorbance at 660 nm): The symbol “+” means good growth/decolourization/significant increase in fluorescence; The symbol “+/−” means difficult growth; The symbol “−” means that there is no growth/decolourization/significant increase in fluorescence; settings: A. baumannii, substrate 35 mg/l
Protocol: as §1, §2, §3, §4, §5

Kocuria rosea = tested on: Kocuria rosea; design: key to RED (substrate reduced or not): RED indicates whether the substrate is reduced (Y) or not (N); RED indicates whether the substrate is reduced (Y) or not (N); key to Co (growth, absorbance at 660 nm) / Decol (substrate decolourized, decrease in absorbance) / Fluo (fluorescence multiplied by 2 relative to substrate-free control): The symbol “+” means good growth/decolourization/significant increase in fluorescence; The symbol “+/−” means difficult growth; The symbol “−” means that there is no growth/decolourization/significant increase in fluorescence; settings: K. rosea, substrate 35 mg/l
Protocol: as §1, §2, §3, §4, §5

Geotrichum candidum = tested on: Geotrichum candidum; design: key to RED (substrate reduced or not): RED indicates whether the substrate is reduced (Y) or not (N); RED indicates whether the substrate is reduced (Y) or not (N); key to Co (growth, absorbance at 660 nm) / Decol (substrate decolourized, decrease in absorbance) / Fluo (fluorescence multiplied by 2 relative to substrate-free control): The symbol “+” means good growth/decolourization/significant increase in fluorescence; The symbol “+/−” means difficult growth; The symbol “−” means that there is no growth/decolourization/significant increase in fluorescence; settings: G. candidum, substrate 35 mg/l
Protocol: as §1, §2, §3, §4, §5

Staphylococcus aureus = tested on: Staphylococcus aureus; design: key to RED (substrate reduced or not): RED indicates whether the substrate is reduced (Y) or not (N); RED indicates whether the substrate is reduced (Y) or not (N); key to Co (growth, absorbance at 660 nm) / Decol (substrate decolourized, decrease in absorbance) / Fluo (fluorescence multiplied by 2 relative to substrate-free control): The symbol “+” means good growth/decolourization/significant increase in fluorescence; The symbol “+/−” means difficult growth; The symbol “−” means that there is no growth/decolourization/significant increase in fluorescence; settings: S. aureus, substrate 35 mg/l
Protocol: as §1, §2, §3, §4, §5

Escherichia coli = tested on: Escherichia coli; design: key to RED (substrate reduced or not): RED indicates whether the substrate is reduced (Y) or not (N); RED indicates whether the substrate is reduced (Y) or not (N); key to Co (growth, absorbance at 660 nm) / Decol (substrate decolourized, decrease in absorbance) / Fluo (fluorescence multiplied by 2 relative to substrate-free control): The symbol “+” means good growth/decolourization/significant increase in fluorescence; The symbol “+/−” means difficult growth; The symbol “−” means that there is no growth/decolourization/significant increase in fluorescence; settings: E. coli, substrate 35 mg/l
Protocol: as §1, §2, §3, §4, §5

Pseudomonas aeruginosa = tested on: Pseudomonas aeruginosa; design: key to RED (substrate reduced or not): RED indicates whether the substrate is reduced (Y) or not (N); RED indicates whether the substrate is reduced (Y) or not (N); key to Co (growth, absorbance at 660 nm) / Decol (substrate decolourized, decrease in absorbance) / Fluo (fluorescence multiplied by 2 relative to substrate-free control): The symbol “+” means good growth/decolourization/significant increase in fluorescence; The symbol “+/−” means difficult growth; The symbol “−” means that there is no growth/decolourization/significant increase in fluorescence; settings: P. aeruginosa, substrate 35 mg/l
Protocol: as §1, §2, §3, §4, §5

[1] = tested on: Staphylococcus epidermidis; design: key to RED (substrate reduced or not): RED indicates whether the substrate is reduced (Y) or not (N); RED indicates whether the substrate is reduced (Y) or not (N); key to Co (growth, absorbance at 660 nm) / Decol (substrate decolourized, decrease in absorbance) / Fluo (fluorescence multiplied by 2 relative to substrate-free control): The symbol “+” means good growth/decolourization/significant increase in fluorescence; The symbol “+/−” means difficult growth; The symbol “−” means that there is no growth/decolourization/significant increase in fluorescence; settings: S. epidermidis, substrate 35 mg/l
Protocol: as §1, §2, §3, §4, §5

Cronobacter muytjensii = tested on: Cronobacter muytjensii; design: key to RED (substrate reduced or not): RED indicates whether the substrate is reduced (Y) or not (N); RED indicates whether the substrate is reduced (Y) or not (N); key to Co (growth, absorbance at 660 nm) / Decol (substrate decolourized, decrease in absorbance) / Fluo (fluorescence multiplied by 2 relative to substrate-free control): The symbol “+” means good growth/decolourization/significant increase in fluorescence; The symbol “+/−” means difficult growth; The symbol “−” means that there is no growth/decolourization/significant increase in fluorescence; settings: E. muytjensii, substrate 35 mg/l
Protocol: as §1, §2, §3, §4, §5

Candida albicans = tested on: Candida albicans; design: key to RED (substrate reduced or not): RED indicates whether the substrate is reduced (Y) or not (N); RED indicates whether the substrate is reduced (Y) or not (N); key to Co (growth, absorbance at 660 nm) / Decol (substrate decolourized, decrease in absorbance) / Fluo (fluorescence multiplied by 2 relative to substrate-free control): The symbol “+” means good growth/decolourization/significant increase in fluorescence; The symbol “+/−” means difficult growth; The symbol “−” means that there is no growth/decolourization/significant increase in fluorescence; settings: substrate 35 mg/l
Protocol: as §1, §2, §3, §4, §5

Row | SMILES | Co (growth, absorbance at 660 nm) (Enterococcus faecalis) | Decol (substrate decolourized, decrease in absorbance) (Enterococcus faecalis) | Fluo (fluorescence multiplied by 2 relative to substrate-free control) (Enterococcus faecalis) | RED (substrate reduced or not) (Enterococcus faecalis) | Co (growth, absorbance at 660 nm) (Acinetobacter baumanii) | Decol (substrate decolourized, decrease in absorbance) (Acinetobacter baumanii) | Fluo (fluorescence multiplied by 2 relative to substrate-free control) (Acinetobacter baumanii) | RED (substrate reduced or not) (Acinetobacter baumanii) | Co (growth, absorbance at 660 nm) (Kocuria rosea) | Decol (substrate decolourized, decrease in absorbance) (Kocuria rosea) | Fluo (fluorescence multiplied by 2 relative to substrate-free control) (Kocuria rosea) | Co (growth, absorbance at 660 nm) (Geotrichum candidum) | Decol (substrate decolourized, decrease in absorbance) (Geotrichum candidum) | Fluo (fluorescence multiplied by 2 relative to substrate-free control) (Geotrichum candidum) | RED (substrate reduced or not) (Geotrichum candidum) | Co (growth, absorbance at 660 nm) (Staphylococcus aureus) | Decol (substrate decolourized, decrease in absorbance) (Staphylococcus aureus) | Fluo (fluorescence multiplied by 2 relative to substrate-free control) (Staphylococcus aureus) | RED (substrate reduced or not) (Staphylococcus aureus) | Co (growth, absorbance at 660 nm) (Escherichia coli) | further results
1 | O=C(O)c1ccccc1/N=N/c1cc(Br)c(O)c(Br)c1 [2-(4-hydroxy-3,5-dibromophenylazo)benzoic acid] | + | + | + | Y | + | − | + | Y | − | − | − | + | − | + | Y | + | + | + | Y | + | Decol (substrate decolourized, decrease in absorbance) (Escherichia coli): −; Fluo (fluorescence multiplied by 2 relative to substrate-free control) (Escherichia coli): +; RED (substrate reduced or not) (Escherichia coli): Y; Co (growth, absorbance at 660 nm) (Pseudomonas aeruginosa): +; Decol (substrate decolourized, decrease in absorbance) (Pseudomonas aeruginosa): −; Fluo (fluorescence multiplied by 2 relative to substrate-free control) (Pseudomonas aeruginosa): −; RED (substrate reduced or not) (Pseudomonas aeruginosa): N; Co (growth, absorbance at 660 nm) [1]: +; Decol (substrate decolourized, decrease in absorbance) [1]: +/−; Fluo (fluorescence multiplied by 2 relative to substrate-free control) [1]: +; RED (substrate reduced or not) [1]: Y; Co (growth, absorbance at 660 nm) (Cronobacter muytjensii): +; Decol (substrate decolourized, decrease in absorbance) (Cronobacter muytjensii): +; Fluo (fluorescence multiplied by 2 relative to substrate-free control) (Cronobacter muytjensii): +; RED (substrate reduced or not) (Cronobacter muytjensii): Y; Co (growth, absorbance at 660 nm) (Candida albicans): +; Decol (substrate decolourized, decrease in absorbance) (Candida albicans): −; Fluo (fluorescence multiplied by 2 relative to substrate-free control) (Candida albicans): −; RED (substrate reduced or not) (Candida albicans): N
2 | Nc1ccc(/N=N/c2ccc(S(=O)(=O)O)cc2)cc1S(=O)(=O)O [4-aminoazobenzene-3,4′-disulfonic acid, 4-Aminoazobenzene-3,4′-disulfonic acid] | + | + | + | Y | + | − | − | N | − | − | − | + | − | − | N | + | − | − | N | + | Decol (substrate decolourized, decrease in absorbance) (Escherichia coli): −; Fluo (fluorescence multiplied by 2 relative to substrate-free control) (Escherichia coli): −; RED (substrate reduced or not) (Escherichia coli): N; Co (growth, absorbance at 660 nm) (Pseudomonas aeruginosa): +; Decol (substrate decolourized, decrease in absorbance) (Pseudomonas aeruginosa): −; Fluo (fluorescence multiplied by 2 relative to substrate-free control) (Pseudomonas aeruginosa): −; RED (substrate reduced or not) (Pseudomonas aeruginosa): N; Co (growth, absorbance at 660 nm) [1]: +; Decol (substrate decolourized, decrease in absorbance) [1]: −; Fluo (fluorescence multiplied by 2 relative to substrate-free control) [1]: −; RED (substrate reduced or not) [1]: N; Co (growth, absorbance at 660 nm) (Cronobacter muytjensii): +; Decol (substrate decolourized, decrease in absorbance) (Cronobacter muytjensii): −; Fluo (fluorescence multiplied by 2 relative to substrate-free control) (Cronobacter muytjensii): −; RED (substrate reduced or not) (Cronobacter muytjensii): N; Co (growth, absorbance at 660 nm) (Candida albicans): +; Decol (substrate decolourized, decrease in absorbance) (Candida albicans): +; Fluo (fluorescence multiplied by 2 relative to substrate-free control) (Candida albicans): +; RED (substrate reduced or not) (Candida albicans): Y
